Data on 8 compounds can be found in patent US20260226048A1, “MULTI-CYCLIC IRAK AND FLT3 INHIBITING COMPOUNDS AND USES THEREOF” (CHILDREN'S HOSPITAL MEDICAL CENTER, priority 2023, published 2026).

In one test the test system is THP1 cells (FLT3 WT). As to the kind of experiment: Combination drug screening with venetoclax in THP1 cells (Cell Titre Glo, 10 × 10). The class given is cell-based. The settings on record: for Excess HSA (sum excess HSA score, combination with venetoclax): 10 × 10 dataset, Cell Titre Glo at 48 hours, optimal of 4 dose combinations, negative = synergy; for Concentration needed to decrease the 312.5 nM Venetoclax response to <20%: Cell Titer Glo at 48 hours. The protocol: These assays were performed using the Cell Titre Glo assay, measured at 48 hours.
A smaller concentration indicates higher potency to synergize with Venetoclax.

Test [1] deals with T1, IRAK4 (Homo sapiens, UniProt Q9NWZ3).
T1 sequence (Q9NWZ3 1-460): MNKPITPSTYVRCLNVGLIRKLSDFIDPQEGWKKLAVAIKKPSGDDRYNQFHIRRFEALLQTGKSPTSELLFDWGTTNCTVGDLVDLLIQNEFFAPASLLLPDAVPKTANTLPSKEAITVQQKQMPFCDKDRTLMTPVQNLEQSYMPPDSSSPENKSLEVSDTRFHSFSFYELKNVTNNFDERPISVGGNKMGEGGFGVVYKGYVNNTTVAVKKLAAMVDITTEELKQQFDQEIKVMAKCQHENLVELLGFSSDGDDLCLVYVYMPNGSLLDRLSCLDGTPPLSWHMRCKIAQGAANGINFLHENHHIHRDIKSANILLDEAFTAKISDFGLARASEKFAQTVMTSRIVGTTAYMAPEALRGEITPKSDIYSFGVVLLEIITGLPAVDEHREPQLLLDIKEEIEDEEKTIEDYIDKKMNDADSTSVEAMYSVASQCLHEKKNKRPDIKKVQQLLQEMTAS
The test can be described thus: RBC HotSpot Kinase Assay, IRAK4. The class given is biochemical. On the set-up: purchased Reaction Biology (RBC HotSpot). Particulars: isolated kinase enzyme, 33P-ATP, P81 filter-binding. Put shortly: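 Radiometric filter-binding activity assay with isolated recombinant kinase (construct may be truncated or catalytic domain only) in 20 mM Hepes pH 7.5, 10 mM MgCl2, 1 mM EGTA, 2 mM DTT, 1% DMSO. Compound preincubated 20 min with kinase/substrate; reaction started with 33P-ATP, run 2 h at room temperature.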

In test [2] the target is T1, IRAK4. The test can be described thus: Reaction Biology NanoBRET target engagement assay in HEK-293 cells, IRAK4. It is filed as cell-based. Particulars: live HEK-293 cells transfected with Kinase-NanoLuc fusion, 1 hour. The text has this:
The NanoBRET assay measures kinase engagement in real time in the context of the intact cell. Unlike the previously described biochemical kinase assay methodology in Example 33, the NanoBRET assay measures the binding and activity characteristics under equilibrium conditions using full-length kinases in the presence of cellular concentrations of ATP in live, uncompromised cells. As such, the assay provides a more relevant assessment of kinase potency and selectivity that would be expected to be observed in the native cellular environment, where potency is often considerably lower than that observed in the isolated biochemical assays (Vasta, J. D. et al., (2018) Cell Chem. Biol. 25, 206-214). The assay uses a Kinase-NanoLuc® fusion vector expressing a kinase protein to which a luciferase tag has been added, a cell-permeant fluorescent NanoBRET™ tracer, a NanoLuc® substrate, and an extracellular NanoLuc® inhibitor. Upon expression of the luciferase-tagged kinase, cells will produce a strong BRET signal only in the presence of the NanoBRET™ tracer. The extracellular NanoLuc® inhibitor ensures that the BRET signal observed emanates only from live cells. Because the BRET signal has tight distance constraints, addition of the test compound will decrease the BRET signal if the compound competes with the NanoBRET™ tracer for binding to the kinase domain. Under the appropriate tracer conditions established by the manufacturer, quantitative intracellular affinity and relative potency can then be determined using Mass Action model equations.
HEK-293 cells were purchased from ATCC. FuGENEHD Transfection Reagent, Kinase-NanoLucfusion plasmids, Transfection Carrier DNA, NanoBRETTracers and dilution buffer, NanoBRETNano-Glo Substrate, Extracellular NanoLucInhibitor were obtained from Promega.
Assays were conducted following Promega assay protocol with some modifications. HEK-293 Cells were transiently transfected with Kinase-NanoLucFusion Vector DNA by FuGENEHD Transfection Reagent. Testing compounds were delivered into 384 well assay plate by Echo 550 (LabcyteInc, Sunnyvale, CA). Transfected cells were harvested and mixed with NanoBRETTracer Reagent and dispensed into 384 well plates and incubated at 37° C. in 5% C02 cell culture incubator for 1 hour. The NanoBRETNano-Glo Substrate plus Extracellular NanoLucInhibitor Solution were added into the wells of the assay plate and incubated for 2-3 minutes at room temperature. The donor emission wavelength (460 nm) and acceptor emission wavelength (600 nm) were measured in the EnVisionplate reader. The BRET Ratios were calculated. BRET Ratio=[(Acceptor sample÷Donor sample)−(Acceptor no-tracer control÷Donor no-tracer control)]. The IC50 values of compounds were calculated with Prism GraphPad program.
• 1). Cultivate HEK-293 cells (70-80% confluence) appropriately prior to assay. Trypsinize and collect HEK-293 cells. • 2). Prepare lipid: DNA complexes as follows: • a. Prepare a 10 μg/ml solution of DNA in Opti-MEM without serum that consists of the following ratios of carrier DNA and DNA encoding NanoLuc® fusion. 9.0 μg/mL of Transfection Carrier DNA, 1.0 μg/mL of NanoLuc fusion vector DNA and 1 mL of Opti-MEM without phenol red. Mix thoroughly. • b. Add 30 μl of FuGENE HD Transfection Reagent into each milliliter of DNA mixture to form lipid: DNA complex. • c. Mix by inversion 10 times. • d. Incubate at ambient temperature for 20 minutes to allow complexes to form. • 3). In a sterile, conical tube, mix 1 part of lipid:DNA complex with 20 parts of HEK-293 cells in suspension. Mix gently by inversion 5 times. • 4). Dispense cells+lipid:DNA complex into a sterile tissue culture dish and incubate for 22-24 hours.
Each test compound is delivered from the compound source plate to the wells of 384-well white NBS plate by Echo 550.
3. Preparation of Cells with NanoBRET™ Tracer Reagent • 1). […]
(In general: In BRET a luciferase serves as donor, and the signal depends on an acceptor being close.)

Structures are written as SMILES.

For the compound `F[C@H]1CCNC[C@@H]1Nc1nccc(-c2cnc3cc(OC4CC4)c(C4CC4)nn23)n1` [Compound 12a, 4-(7-cyclopropoxy-6-cyclopropylimidazo[1,2-b]pyridazin-3-yl)-N-((3S,4S)-4-fluoropiperidin-3-yl)pyrimidin-2-amine], in the test with THP1 cells (FLT3 WT), the “Excess HSA (sum excess HSA score, combination with venetoclax)” value (“Excess HSA” below) is on record as −1770.6140. Moreover, the “Concentration needed to decrease the 312.5 nM Venetoclax response to <20%” value in the test on THP1 cells (FLT3 WT) is 5 µM. In addition, the figures for the IC50 on IRAK4 [1] and at IRAK4 [2] were 6 nM and less than 0.5 nM, respectively.
As to `COc1cc2ncc(-c3nc(N[C@H]4CNCC[C@@H]4F)ncc3F)n2nc1C(C)(C)O` [Compound 45a, 2-(3-(5-fluoro-2-(((3S,4S)-4-fluoropiperidin-3-yl)amino)pyrimidin-4-yl)-7-methoxyimidazo[1,2-b]pyridazin-6-yl)propan-2-ol], in the test with THP1 cells (FLT3 WT), the “Excess HSA” value is given as −1158 and the “Concentration needed to decrease the 312.5 nM Venetoclax response to <20%” value was 10 µM. The concentration for half-maximal inhibition (IC50) at IRAK4 [1] worked out at 8 nM. The same compound yielded an IC50 on IRAK4 [2] of 3 nM.
The like results for `CC(C)(O)c1ccc2ncc(-c3nc(N[C@H]4CNCC[C@@H]4F)ncc3F)n2c1` [Compound 46a, 2-(3-(5-fluoro-2-(((3S,4S)-4-fluoropiperidin-3-yl)amino)pyrimidin-4-yl)imidazo[1,2-a]pyridin-6-yl)propan-2-ol] were, in that order, −774, 2.5 µM, 2 nM and 4 nM.
On to `CC(C)(O)c1ccc2ncc(-c3nc(N[C@@H]4CCCNC4)ncc3F)n2c1` [Compound 48a, (R)-2-(3-(5-fluoro-2-(piperidin-3-ylamino)pyrimidin-4-yl)imidazo[1,2-a]pyridin-6-yl)propan-2-ol], for which, in the test with THP1 cells (FLT3 WT), the “Excess HSA” value was −759.8 and the “Concentration needed to decrease the 312.5 nM Venetoclax response to <20%” value was 2.5 µM. This compound displayed a 50% inhibitory concentration (IC50) at IRAK4 [1] of 5 nM. On IRAK4 [2], this compound gave an IC50 of 5 nM.
`COc1cc2ncc(-c3nc(N[C@H]4CNCC[C@@H]4F)ncc3F)n2nc1C1CC(F)(F)C1` [Compound 49a, 4-(6-(3,3-difluorocyclobutyl)-7-methoxyimidazo[1,2-b]pyridazin-3-yl)-5-fluoro-N-((3S,4S)-4-fluoropiperidin-3-yl)pyrimidin-2-amine]: in the test with THP1 cells (FLT3 WT), the “Excess HSA” value is recorded as −1767 and the “Concentration needed to decrease the 312.5 nM Venetoclax response to <20%” value amounted to 10 µM. At IRAK4 [1], this compound yielded an IC50 of 0.5 nM. At IRAK4 [2], the IC50 was less than 0.5 nM.
For `COc1cc2ncc(-c3ccnc(N[C@H]4CNCC[C@@H]4F)n3)n2nc1C1CCC1` [Compound 79a, 4-(6-cyclobutyl-7-methoxyimidazo[1,2-b]pyridazin-3-yl)-N-((3S,4S)-4-fluoropiperidin-3-yl)pyrimidin-2-amine], in the test with THP1 cells (FLT3 WT), the “Excess HSA” value is given as −994.9. The “Concentration needed to decrease the 312.5 nM Venetoclax response to <20%” value in the test with THP1 cells (FLT3 WT) is 5 µM. Besides, the IC50 is 2 nM at IRAK4 [1] and less than 0.5 nM on IRAK4 [2].
With `COc1cc2ncc(-c3nc(N[C@H]4CNCC[C@@H]4F)ncc3F)n2nc1C1COC1` [Compound 92a, 5-fluoro-N-((3S,4S)-4-fluoropiperidin-3-yl)-4-(7-methoxy-6-(oxetan-3-yl)imidazo[1,2-b]pyridazin-3-yl)pyrimidin-2-amine], in the test with THP1 cells (FLT3 WT), the “Excess HSA” value was −529.2 and the “Concentration needed to decrease the 312.5 nM Venetoclax response to <20%” value amounted to 5 µM. The same compound returned a 50% inhibitory concentration (IC50) on IRAK4 [1] of less than 0.5 nM. The compound further returned an IC50 on IRAK4 [2] of less than 0.5 nM.
As to `CC(C)(O)c1cn2c(-c3nc(N[C@H]4CNCC[C@@H]4F)ncc3F)cnc2cn1` [Compound 100a, 2-(3-(5-fluoro-2-(((3S,4S)-4-fluoropiperidin-3-yl)amino)pyrimidin-4-yl)imidazo[1,2-a]pyrazin-6-yl)propan-2-ol], in the test with THP1 cells (FLT3 WT), the “Excess HSA” value was −1080 and the “Concentration needed to decrease the 312.5 nM Venetoclax response to <20%” value worked out at 10 µM. The compound further came in with an IC50 at IRAK4 [1] of 2 nM. This compound also showed an IC50 against IRAK4 [2] of 8 nM.

In general, IC50 refers to the concentration at which inhibition is half-maximal. A low value points to higher potency.
